Assay results from US20060276464A1, “Diarylsulfone sulfonamides and use thereof” (Wyeth, priority 2005, published 2006).
Like-named read-outs stand apart in the source and are kept apart here.

Molecular target: T1, SFRP-1 (Homo sapiens, UniProt Q8N474)
T1 sequence (Q8N474 32-314): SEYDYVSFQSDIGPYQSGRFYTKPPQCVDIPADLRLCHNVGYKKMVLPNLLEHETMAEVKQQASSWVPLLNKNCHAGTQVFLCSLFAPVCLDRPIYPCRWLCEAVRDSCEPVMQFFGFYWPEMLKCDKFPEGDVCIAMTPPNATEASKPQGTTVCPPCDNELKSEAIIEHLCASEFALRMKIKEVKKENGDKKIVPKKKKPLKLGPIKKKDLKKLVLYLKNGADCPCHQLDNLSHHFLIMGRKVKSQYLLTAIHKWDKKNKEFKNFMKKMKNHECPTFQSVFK
Assay: Cell-based assay for in vitro measurement of SFRP-1/SARP2 antagonist activity (U2OS cells co-transfected with 16x TCF-tk-Luciferase reporter, Wnt and hSFRP-1);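 note: U2OS cells co-transfected with a TCF-tk luciferase reporter, a Wnt vector, hSFRP-1 or empty vector and CMV-βgal, luciferase luminescence read in cell lysates alongside βgal activity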
Details: for fold induction at 30 µM / fold induction at 20 µM / fold induction at 15 µM: U2OS

[1] = read-out: Fold Induction with SFRP-1, Conc 30 μM, with SFRP-1, fold induction over SFRP-1 control, single dose
[2] = read-out: Fold Induction without SFRP-1, Conc 30 μM, without SFRP-1, single dose
[3] = read-out: Fold Induction with SFRP-1, Conc 20 μM, with SFRP-1, fold induction over SFRP-1 control, single dose
[4] = read-out: Fold Induction without SFRP-1, Conc 20 μM, without SFRP-1, single dose
[5] = read-out: Fold Induction with SFRP-1, Conc 15 μM, with SFRP-1, fold induction over SFRP-1 control, single dose
[6] = read-out: Fold Induction without SFRP-1, Conc 15 μM, without SFRP-1, single dose

| SMILES | fold induction at 15 µM [5] | fold induction at 15 µM [6] | also measured |
| --- | --- | --- | --- |
| Cc1ccc(S(=O)(=O)c2ccc(F)cc2)cc1S(=O)(=O)NCCc1cccc(F)c1 [Example 24, N-[2-(3-fluorophenyl)ethyl]-5-[(4-fluorophenyl)sulfonyl]-2-methylbenzenesulfonamide] |  |  | fold induction at 30 µM [1]: 0.3; fold induction at 30 µM [2]: 0.3 |
| Cc1ccc(S(=O)(=O)c2ccc(C)c(S(=O)(=O)N[C@H]3C[C@@H]3c3ccccc3)c2)cc1 [Example 253, 2-methyl-5-[(4-methylphenyl)sulfonyl]-N-[(1S,2R)-2-phenylcyclopropyl]benzenesulfonamide] |  |  | fold induction at 20 µM [3]: 1.4; fold induction at 20 µM [4]: 0.9 |
| O=S(=O)(N[C@H]1C[C@@H]1c1ccccc1)c1cccc(S(=O)(=O)c2ccccc2)c1 [Example 259, N-[(1S,2R)-2-phenylcyclopropyl]-3-(phenylsulfonyl)benzenesulfonamide] |  |  | fold induction at 20 µM [3]: 1; fold induction at 20 µM [4]: 1.1 |
| Cc1ccc(S(=O)(=O)c2ccc(Cl)cc2Cl)cc1S(=O)(=O)NCCCn1ccnc1 [Example 379, 5-[(2,4-dichlorophenyl)sulfonyl]-N-[3-(1H-imidazol-1-yl)propyl]-2-methylbenzenesulfonamide] | 1.8 | 0.9 |  |
| Cc1cc(C)c(S(=O)(=O)c2ccccc2)cc1S(=O)(=O)NC(C)C(O)c1ccccc1 (stereo not drawn) [Example 393, N-[(trans)-2-hydroxy-1-methyl-2-phenylethyl]-2,4-dimethyl-5-(phenylsulfonyl)benzenesulfonamide] |  |  | Fold Induction with SFRP-1 (Conc 7.5 μM, with SFRP-1, fold induction over SFRP-1 control, single dose): 1.2 fold; Fold Induction without SFRP-1 (Conc 7.5 μM, without SFRP-1, single dose): 1 fold |
| CCc1ccc(S(=O)(=O)c2ccccc2)cc1S(=O)(=O)NCCc1c[nH]cn1 [Example 225, 2-ethyl-N-[2-(1H-imidazol-4-yl)ethyl]-5-(phenylsulfonyl)benzenesulfonamide] | 3.1 | 0.9 |  |
| Cc1ccc(S(=O)(=O)c2cccnc2)cc1S(=O)(=O)NCCc1ccccn1 [Example 426, 2-methyl-N-(2-pyridin-2-ylethyl)-5-(pyridin-3-ylsulfonyl)benzenesulfonamide] | 1.3 | 0.8 |  |
| Cc1ccc(S(=O)(=O)c2ccc(F)cc2)cc1S(=O)(=O)NCCCN1CCOCC1 [Example 163, 5-[(4-fluorophenyl)sulfonyl]-2-methyl-N-(3-morpholin-4-ylpropyl)benzenesulfonamide] | 2 | 0.9 |  |
| Cc1ccc(S(=O)(=O)c2ccc(Cl)cc2)cc1S(=O)(=O)NCCc1ccccc1Cl [Example 89, N-[2-(2-chlorophenyl)ethyl]-5-[(4-chlorophenyl)sulfonyl]-2-methylbenzenesulfonamide] |  |  | fold induction at 30 µM [1]: 1.8; fold induction at 30 µM [2]: 0.5 |

Further lines, with some results ahead:

| fold induction at 15 µM [5] | fold induction at 15 µM [6] | SMILES | also measured |
| --- | --- | --- | --- |
| 2.2 | 1 | O=S(=O)(NCCN1CCOCC1)c1cc(S(=O)(=O)c2ccccc2)ccc1Cl [Example 335, 2-chloro-N-(2-morpholin-4-ylethyl)-5-(phenylsulfonyl)benzenesulfonamide] |  |
| 2.1 | 1.1 | CC(=O)N1CCC(NS(=O)(=O)c2cc(S(=O)(=O)c3ccccc3)ccc2C)CC1 [Example 479, N-(1-acetylpiperidin-4-yl)-2-methyl-5-(phenylsulfonyl)benzenesulfonamide] |  |
| 1.9 | 1 | Cc1ccc(S(=O)(=O)c2ccccc2)cc1S(=O)(=O)N1CCN(CC(=O)N2CCCC2)CC1 [Example 279, 1-{[2-methyl-5-(phenylsulfonyl)phenyl]sulfonyl}-4-(2-oxo-2-pyrrolidin-1-ylethyl)piperazine] |  |
| 1.9 | 1.1 | Cc1ccc(S(=O)(=O)c2ccccc2Cl)cc1S(=O)(=O)NCCCn1ccnc1 [Example 377, 5-[(2-chlorophenyl)sulfonyl]-N-[3-(1H-imidazol-1-yl)propyl]-2-methylbenzenesulfonamide] |  |
